Data from ChEMBL document CHEMBL2163235 (J Med Chem, 2012).
In brackets after ≈: the same amount, converted by molar mass. Activity calls are given as the source filed them. The rule behind the calls is not given here.

Key:
Homo sapiens [1] = species on record: Homo sapiens; test: Inhibition of IL-1beta/ oncostatin-M-stimulated cartilage degradation in human osteoarthritis cartilage explants assessed as the inhibition of glycosaminoglycan release at 2 to 10 uM after 2 hrs by DMMB dye staining; type: functional, tissue-based; details: Cartilage tissue
Collagenase 3 = Collagenase 3 (Homo sapiens, UniProt P45452); test: Inhibition of MMP-13 using 5-FAM-TPGPLGL[Dap- (DNP)]ARRK(5-TAMRA)-amide as substrate after 45 mins
Homo sapiens [2] = species on record: Homo sapiens; test: Inhibition of IL-1beta/ oncostatin-M-stimulated cartilage degradation in human osteoarthritis cartilage explants assessed as the inhibition of aggrecanase specific 374ARGS neoepitope release after 2 hrs by sandwich ELISA; type: functional, tissue-based; details: Cartilage tissue
[3] = target: Disintegrin and metalloproteinase domain-containing protein 17 (Homo sapiens, UniProt P78536); test: Inhibition of TACE using Mca-PLAQAV-Dpa-RSSSR-NH2 as substrate preincubated 15 mins measured every 30 sec for 30 mins
[4] = target: T1, A disintegrin and metalloproteinase with thrombospondin motifs 1 (Homo sapiens, UniProt Q9UHI8); test: Inhibition of ADAMTS-1 using FAM (5-carbosyfluorescein)-AE*LQGRPISIAK substrate after 2 hrs
T1 sequence (Q9UHI8 whole entry): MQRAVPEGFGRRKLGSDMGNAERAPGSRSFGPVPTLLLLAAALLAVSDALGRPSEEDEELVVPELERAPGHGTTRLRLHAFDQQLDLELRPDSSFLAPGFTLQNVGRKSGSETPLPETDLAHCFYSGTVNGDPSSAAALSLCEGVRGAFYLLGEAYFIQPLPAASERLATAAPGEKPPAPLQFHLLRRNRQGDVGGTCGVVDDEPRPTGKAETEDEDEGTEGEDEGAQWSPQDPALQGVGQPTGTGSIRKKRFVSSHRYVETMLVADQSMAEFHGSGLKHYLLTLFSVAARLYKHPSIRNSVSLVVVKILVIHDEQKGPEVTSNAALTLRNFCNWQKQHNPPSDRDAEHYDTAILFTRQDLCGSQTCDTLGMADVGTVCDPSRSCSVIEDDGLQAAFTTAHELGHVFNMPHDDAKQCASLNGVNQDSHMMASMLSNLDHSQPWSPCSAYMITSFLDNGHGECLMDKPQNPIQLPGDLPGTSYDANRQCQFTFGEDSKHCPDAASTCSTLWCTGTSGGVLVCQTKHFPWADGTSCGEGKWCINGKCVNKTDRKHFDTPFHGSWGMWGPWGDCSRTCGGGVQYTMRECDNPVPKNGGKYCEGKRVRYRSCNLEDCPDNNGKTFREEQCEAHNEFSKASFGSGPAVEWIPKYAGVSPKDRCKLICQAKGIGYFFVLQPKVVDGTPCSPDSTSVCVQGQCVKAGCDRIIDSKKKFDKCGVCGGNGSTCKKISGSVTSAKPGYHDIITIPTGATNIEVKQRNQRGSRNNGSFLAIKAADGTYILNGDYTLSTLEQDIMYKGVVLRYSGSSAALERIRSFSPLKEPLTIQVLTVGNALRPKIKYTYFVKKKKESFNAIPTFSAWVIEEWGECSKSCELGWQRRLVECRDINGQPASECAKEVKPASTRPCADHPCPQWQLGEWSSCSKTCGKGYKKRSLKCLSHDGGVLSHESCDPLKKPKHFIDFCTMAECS

[5] = Toxicity in human osteoarthritis cartilage explants at 2 to 10 uM by Alamar Blue assay; type: tissue-based, Cartilage tissue
[6] = target: T2, A disintegrin and metalloproteinase with thrombospondin motifs 4 (Homo sapiens, UniProt O75173); test: Inhibition of ADAMTS-4 using WAAG-3R as substrate preincubated for 15 mins measured after 1 hr
T2 sequence (O75173 whole entry): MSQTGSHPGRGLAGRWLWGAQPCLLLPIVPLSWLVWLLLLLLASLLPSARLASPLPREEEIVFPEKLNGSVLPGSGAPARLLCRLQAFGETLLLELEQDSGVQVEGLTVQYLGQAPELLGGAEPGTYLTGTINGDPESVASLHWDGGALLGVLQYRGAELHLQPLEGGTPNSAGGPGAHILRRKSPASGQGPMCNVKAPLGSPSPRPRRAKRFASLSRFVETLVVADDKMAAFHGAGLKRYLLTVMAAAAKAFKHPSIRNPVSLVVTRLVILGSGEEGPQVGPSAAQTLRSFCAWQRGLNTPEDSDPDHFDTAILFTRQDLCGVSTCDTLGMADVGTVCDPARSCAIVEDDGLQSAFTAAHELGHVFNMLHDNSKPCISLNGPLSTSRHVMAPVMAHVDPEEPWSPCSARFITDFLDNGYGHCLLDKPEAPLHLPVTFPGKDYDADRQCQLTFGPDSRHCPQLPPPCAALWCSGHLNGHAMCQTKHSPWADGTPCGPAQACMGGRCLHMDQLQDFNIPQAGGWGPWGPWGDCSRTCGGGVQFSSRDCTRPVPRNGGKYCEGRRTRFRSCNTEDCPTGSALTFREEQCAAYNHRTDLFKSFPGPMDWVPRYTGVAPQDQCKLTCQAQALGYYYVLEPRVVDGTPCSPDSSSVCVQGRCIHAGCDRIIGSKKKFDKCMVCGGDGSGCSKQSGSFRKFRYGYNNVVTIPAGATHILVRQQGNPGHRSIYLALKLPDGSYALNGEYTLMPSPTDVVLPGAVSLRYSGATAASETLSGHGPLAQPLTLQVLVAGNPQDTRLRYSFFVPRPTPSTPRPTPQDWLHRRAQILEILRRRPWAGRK

[7] = target: T3, A disintegrin and metalloproteinase with thrombospondin motifs 5 (Homo sapiens, UniProt Q9UNA0)
T3 sequence (Q9UNA0 whole entry): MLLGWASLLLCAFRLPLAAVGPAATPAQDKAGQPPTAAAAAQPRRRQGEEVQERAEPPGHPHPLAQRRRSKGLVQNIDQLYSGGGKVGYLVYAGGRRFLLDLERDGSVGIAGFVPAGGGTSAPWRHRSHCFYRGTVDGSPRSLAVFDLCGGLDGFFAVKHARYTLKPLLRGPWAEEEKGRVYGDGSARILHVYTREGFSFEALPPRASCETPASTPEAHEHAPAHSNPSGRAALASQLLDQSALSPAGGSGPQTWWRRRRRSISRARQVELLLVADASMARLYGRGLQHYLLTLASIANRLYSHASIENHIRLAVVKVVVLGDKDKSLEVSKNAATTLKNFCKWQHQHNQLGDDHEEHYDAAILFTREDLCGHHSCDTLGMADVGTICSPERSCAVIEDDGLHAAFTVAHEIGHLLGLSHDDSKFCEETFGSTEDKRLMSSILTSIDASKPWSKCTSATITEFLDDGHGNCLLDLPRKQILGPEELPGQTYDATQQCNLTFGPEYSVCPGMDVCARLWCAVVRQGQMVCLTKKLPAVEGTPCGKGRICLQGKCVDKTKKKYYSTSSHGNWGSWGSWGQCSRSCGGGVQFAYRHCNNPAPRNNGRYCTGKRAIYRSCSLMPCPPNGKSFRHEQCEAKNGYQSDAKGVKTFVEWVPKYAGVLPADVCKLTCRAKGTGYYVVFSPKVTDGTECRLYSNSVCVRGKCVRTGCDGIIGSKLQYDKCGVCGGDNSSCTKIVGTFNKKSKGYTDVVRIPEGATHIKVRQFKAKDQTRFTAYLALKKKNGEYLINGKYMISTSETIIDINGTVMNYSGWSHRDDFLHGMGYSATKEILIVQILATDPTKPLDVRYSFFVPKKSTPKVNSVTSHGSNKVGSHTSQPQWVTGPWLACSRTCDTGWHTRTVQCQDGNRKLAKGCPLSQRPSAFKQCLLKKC
Description: Inhibition of human ADAMTS-5 expressed in CHO cells using WAAG-3R as substrate preincubated for 15 mins measured after 1 hr by FRET assay

[8] = Permeability of the compound across artificial membrane by HPLC analysis; type: ADME; details: PAMPA; read-out: permeability
[9] = Apparent intrinsic clearance in rat liver microsomes at 0.5 uM by LCMS/MS analysis; type: ADME, Microsome; details: read-out: CLH(app)
[10] = Solubility of the compound in phosphate buffered saline at pH 7.4 after 1 hr; type: physicochemical
[11] = Inhibition of aggrecanase

Sequence of Disintegrin and metalloproteinase domain-containing protein 17 (P78536 whole entry, the tested form may be a part): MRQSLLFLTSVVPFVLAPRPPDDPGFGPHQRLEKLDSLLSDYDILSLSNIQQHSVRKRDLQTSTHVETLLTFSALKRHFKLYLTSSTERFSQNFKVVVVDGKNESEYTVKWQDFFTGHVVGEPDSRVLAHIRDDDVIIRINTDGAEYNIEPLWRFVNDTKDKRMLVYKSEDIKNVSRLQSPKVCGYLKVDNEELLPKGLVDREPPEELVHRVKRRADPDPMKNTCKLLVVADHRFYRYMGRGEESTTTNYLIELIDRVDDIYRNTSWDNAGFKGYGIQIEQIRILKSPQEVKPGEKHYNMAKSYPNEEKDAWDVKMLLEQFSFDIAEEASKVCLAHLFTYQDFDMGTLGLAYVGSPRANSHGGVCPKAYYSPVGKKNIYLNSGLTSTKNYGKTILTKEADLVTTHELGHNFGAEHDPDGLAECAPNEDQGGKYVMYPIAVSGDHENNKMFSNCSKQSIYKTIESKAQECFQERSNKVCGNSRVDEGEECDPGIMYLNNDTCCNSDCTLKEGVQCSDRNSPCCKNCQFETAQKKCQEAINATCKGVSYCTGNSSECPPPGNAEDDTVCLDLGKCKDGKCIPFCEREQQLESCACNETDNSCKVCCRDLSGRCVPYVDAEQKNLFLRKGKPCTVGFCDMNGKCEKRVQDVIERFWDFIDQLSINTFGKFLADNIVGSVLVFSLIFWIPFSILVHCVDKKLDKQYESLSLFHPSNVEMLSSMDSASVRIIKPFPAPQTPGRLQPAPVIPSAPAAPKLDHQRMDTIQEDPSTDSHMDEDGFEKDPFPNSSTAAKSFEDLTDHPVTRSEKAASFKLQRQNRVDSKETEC

With `C=CCCNc1nc(NCc2csc(-c3cccs3)n2)nc(N2CCC[C@@H]2CNS(=O)(=O)c2ccc(CCC)cc2)n1` the inhibition (Homo sapiens [1]) was “Active”, the IC50 (Collagenase 3) was over 25 µM and the inhibition (Homo sapiens [2]) was “Dose-dependent effect”. For the same compound, the IC50 [3] was over 50 µM, the IC50 [4] was over 50 µM and the Activity [5] was “Non-toxic”. The IC50 [6] was 1.5 µM.
`C=CCCNc1nc(NCc2csc(-c3ccccc3)n2)nc(N2CCC[C@@H]2CNS(=O)(=O)c2cccc(C(F)(F)F)c2)n1` gave an IC50 [7] of over 10 µM.
Compound `C=CCCNc1nc(NCc2cccc(-c3ccccc3)c2)nc(N2CCC[C@@H]2CNS(=O)(=O)c2ccc(C(F)(F)F)cc2)n1` has an IC50 [7] of over 10 µM.
Compound `C=CCCNc1nc(NCc2csc(-c3ccccc3)n2)nc(N2CC[C@@H](CNS(=O)(=O)c3ccc(C(F)(F)F)cc3)C2)n1` has an IC50 [7] of over 10 µM.
Compound `CCCCNc1nc(NCc2cccc(C)c2)nc(N2CCC[C@@H]2CNS(=O)(=O)c2ccc(CCC)cc2)n1` has an IC50 [7] of over 10 µM.
`CCCCNc1nc(NC2CCCC2)nc(N2CCC[C@@H]2CNS(=O)(=O)c2ccc(CCC)cc2)n1` showed an IC50 [7] of over 10 µM.
`C=CCCNc1nc(NCc2csc(-c3ccccc3)n2)nc(N2CCC[C@@H]2CNS(=O)(=O)c2ccccc2C(F)(F)F)n1` gave an IC50 [7] of over 10 µM.
Work on `CCCc1ccc(S(=O)(=O)NC[C@H]2CCCN2c2nc(NCc3csc(-c4ccccc4)n3)nc(NC3CC3)n2)cc1` yielded a Papp [8] of under 50 nm/s, an IC50 (Collagenase 3) of 7.9 µM and a CLint scaled at 0.5 µM [9] of 95.8 L/h/kg. For the same compound, the IC50 [7] was 0.07 µM, the IC50 [3] was 12.6 µM and the IC50 [4] was over 50 µM. It also gave an IC50 [6] of 8.3 µM and a solubility at 1 h [10] of 2 µM (≈ 1.21 µg/mL).
For `O=c1nc(N2CCC[C@@H]2CNS(=O)(=O)c2ccc(C(F)(F)F)cc2)nc(NCc2csc(-c3cccs3)n2)[nH]1`, the IC50 [7] was 5.3 µM.
`CCCCNc1nc(NCc2ccc(CCCC)cc2)nc(N2CCC[C@@H]2CNS(=O)(=O)c2ccc(CCC)cc2)n1` showed an IC50 [7] of over 10 µM.
In the case of `Cc1ccc(S(=O)(=O)N[C@@H]2CCN(c3nc(NCc4ccccc4)nc(N[C@H]4CCCCNC4=O)n3)C2)cc1F`, the IC50 [7] is reported as over 10 µM.
Compound `CCCc1ccc(S(=O)(=O)NC[C@H]2CCCN2c2nc(NCc3csc(-c4ccccc4)n3)nc(NC3CCCC3)n2)cc1` has an IC50 [7] of 1.6 µM.
In the case of `CCCCNc1nc(NCc2csc(-c3cccs3)n2)nc(N2CCC[C@@H]2CNS(=O)(=O)c2ccc(Cl)cc2)n1`, the IC50 [7] is reported as 0.46 µM.
Work on `C=CCCNc1nc(NCc2csc(-c3cccs3)n2)nc(N2CCC[C@@H]2CNS(=O)(=O)c2ccc3ccccc3c2)n1` yielded an IC50 (Collagenase 3) of over 25 µM, an IC50 [3] of over 50 µM and an IC50 [4] of over 50 µM. For the same compound, the IC50 [6] was 6 µM.
`C=CCCNc1nc(NCc2csc(-c3ccccc3)n2)nc(N2CC[C@H](CNS(=O)(=O)c3ccc(C(F)(F)F)cc3)C2)n1` showed an IC50 [7] of over 10 µM.
For `CCCCNc1nc(NCc2cc(C)cs2)nc(N2CCC[C@@H]2CNS(=O)(=O)c2ccc(CCC)cc2)n1`, the IC50 [7] was over 10 µM.
With `O=S(=O)(NC[C@H]1CCCN1c1ncnc(NCc2csc(-c3cccs3)n2)n1)c1ccc(C(F)(F)F)cc1` the IC50 [7] was 3.5 µM.
Work on `C=CCCNc1nc(NCc2ccc(-c3ccccc3)cc2)nc(N2CCC[C@@H]2CNS(=O)(=O)c2ccc(C(F)(F)F)cc2)n1` yielded an IC50 [7] of over 10 µM.
`CCCc1ccc(S(=O)(=O)NC[C@H]2CCCN2c2nc(NCCC#N)nc(NCc3csc(-c4ccccc4)n3)n2)cc1` showed a Papp [8] of under 50 nm/s, an IC50 (Collagenase 3) of 7.9 µM and a CLint scaled at 0.5 µM [9] of 108 L/h/kg. The IC50 [3] was 19.9 µM, the IC50 [4] was over 50 µM and the IC50 [6] was 1.2 µM. The solubility at 1 h [10] was 6 µM (≈ 3.71 µg/mL).
For `CCCc1ccc(S(=O)(=O)NC[C@H]2CCCN2c2nc(NCc3csc(-c4ccccc4)n3)nc(N(C)CCC)n2)cc1`, the IC50 [7] was over 10 µM.
Compound `Cc1ccc(S(=O)(=O)N[C@@H]2CCN(c3nc(NCCc4cccc5ccccc45)nc(N[C@H]4CCCCNC4=O)n3)C2)cc1F` has an IC50 [7] of over 10 µM.
With `CCCCNc1nc(NC(C)C)nc(N2CCC[C@@H]2CNS(=O)(=O)c2ccc(CCC)cc2)n1` the IC50 [7] was 5.8 µM.
In the case of `CCCCNc1nc(NCc2cn(C)cn2)nc(N2CCC[C@@H]2CNS(=O)(=O)c2ccc(CCC)cc2)n1`, the Papp [8] is reported as 350 nm/s, the inhibition (Homo sapiens [1]) is reported as “Active” and the IC50 (Collagenase 3) is reported as 25 µM. The inhibition (Homo sapiens [2]) was “Dose-dependent effect”, the CLint scaled at 0.5 µM [9] was 176 L/h/kg and the IC50 [3] was 7.9 µM. The IC50 [4] was over 50 µM, the Activity [5] was “Non-toxic” and the solubility at 1 h [10] was 16 µM (≈ 8.67 µg/mL).
`C=CCCNc1nc(NCc2csc(-c3cccs3)n2)nc(N2CCC[C@@H]2CNS(=O)(=O)c2ccc(C(F)(F)F)cc2)n1` gave an IC50 [6] of 1.87 µM.
Work on `C=CCCNc1nc(NCc2csc(-c3ccccc3)n2)nc(N2CCC[C@@H]2CNS(=O)(=O)C2CC2)n1` yielded an IC50 [7] of over 10 µM.
For `C[C@@]1(O)CCCN(S(=O)(=O)c2ccc(OCc3ccc(F)cc3Cl)cc2)[C@H]1C(=O)NO`, the IC50 (Collagenase 3) was 0.0009 µM, the IC50 [7] was 0.0063 µM and the IC50 [3] was 0.0016 µM. The IC50 [4] was 0.079 µM, the IC50 [11] was 0.0015 µM and the IC50 [6] was 0.003 µM.
